The values below come from patent publication US7803803B2, “Tetrahydrofuro[3,2-B] pyrrol-3-ones as cathepsin K inhibitors” (Amura Therapeutics Limited, priority 2007, dated 2010).

One may read the Ki as a measure of affinity in units of concentration, obtained from inhibition or displacement. What is called logD is lipophilicity at a set pH, counting ionised and neutral species. High values mean a more lipophilic compound, low ones a more hydrophilic compound.

Where two headings read alike, the source gives them in different places.

The nature of data set [1]: Plasma incubations (human plasma stability). Note: tested at 25 µM. It is filed as in vitro ADME. The note with it: 37° C.
Procedure: Aliquots were removed at 2 and 60 minutes and quenched with an equal volume of cold acetonitrile. After mixing vigorously, the precipitated protein matter was removed by filtration (Multiscreen Solvinert filter plates, Millipore, Bedford, Mass., USA) and the filtrate analysed by reverse phase HPLC with mass spectrometric detection, using single ion monitoring of the [M+H]^+ species. Metabolic turnover was determined by comparison of peak areas from the ion chromatograms of the parent compound at 2 and 60 minutes and expressed as percent remaining at 1 hour.
Another data set is described as follows: LogD determinations. It is filed as physicochemical. Conditions: Ion-count method; for logD at 1 h: 1-octanol/phosphate buffered saline, pH 7.4, pH 7.4.
For a further data set, the target named is T1, cathepsin K (Homo sapiens, UniProt P43235).
T1 sequence (P43235 115-329): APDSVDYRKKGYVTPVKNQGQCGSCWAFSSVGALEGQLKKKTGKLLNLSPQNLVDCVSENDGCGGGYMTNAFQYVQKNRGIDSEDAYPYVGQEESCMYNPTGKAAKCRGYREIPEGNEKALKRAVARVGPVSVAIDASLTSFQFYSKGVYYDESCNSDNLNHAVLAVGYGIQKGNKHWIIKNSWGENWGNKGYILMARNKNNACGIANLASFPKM
Put plainly: In vitro cathepsin Ki inhibition measurements. It is filed as biochemical. Set-up: purchased B. Turk, Josef Stefan Institute, Ljubljana, Slovenia. As for the experimental part:
Stock solutions of substrate or inhibitor were made up to 10 mM in 100% dimethylsulfoxide (DMSO) (Rathburns, Glasgow, U.K.) and diluted as appropriately required. In all cases the DMSO concentration in the assays was maintained at less than 1% (vol./vol.). The equilibrium inhibition constants (Ki^SS) for each compound were measured under steady-state conditions monitoring enzyme activity as a function of inhibitor concentration. The values were calculated on the assumption of pure competitive behaviour (Cornish-Bowden, A. Fundamentals of enzyme kinetics Portland Press; 1995, 93-128). Human recombinant cathepsin K (0.25 nM final; B. Turk, Josef, Stefan Institute, Ljubljana, Slovenia), was routinely assayed in 100 mM sodium acetate; pH 5.5 containing 1 mM EDTA, 10 mM L-cysteine and 1.8 μM Z-Leu-Arg-AMC ([S]═KM).
The apparent inhibition constant (Ki) for each compound was determined on the basis that inhibition was reversible and occurred by a pure-competitive mechanism. The Ki values were calculated, from the dependence of enzyme activity as a function of inhibitor concentration, by direct regression analysis (Prism v 3.02) using Equation 2 (Cornish-Bowden, A., 1995).
In situations where the apparent dissociation constant (Ki^app) approached the enzyme concentrations, the Ki^app values were calculated using a quadratic solution in the form described by Equation 3 (Morrison, J. F. Trends Biochem. Sci., 7, 102-105, 1982; Morrison, J. F. Biochim. Biophys. Acta, 185, 269-286, 1969; Stone, S. R. and Hofsteenge, J. Biochemistry, 25, 4622-4628, 1986).
Curves were fitted by non-linear regression analysis (Prism) using a fixed value for the enzyme concentration. Equation 4 was used to account for the substrate kinetics, where ‘Ki’ is the inhibition constant, ‘[So]’ is the initial substrate concentration and ‘KM^app’ is the apparent macroscopic binding (Michaelis) constant for the substrate (Morrison, 1982).

Setting [2] is: human recombinant cathepsin K, read-out: In vitro Ki (nM) vs Cath K.
Where [3] appears, read: prior art examples of WO-A-02057270, recombinant human cathepsin K, read-out: Ki (nM) vs Human Cathepsin K.

Procedure for LogD determinations: LogD(PBS) determinations were performed in 96 well microtitre plates using a miniaturised “shake-flask” method. […] The plates were then capped and mixed vigorously for 1 hour on a microtitre plate shaker, after which they were left to stand, allowing the PBS and octanol phases to separate. The PBS layer was analysed by reverse phase HPLC with mass spectrometric detection, using single ion monitoring of the [M+H]^+ species.
Where AUCstd and AUCpbs are the peak areas from the standard and test ion chromatograms respectively.

Regarding `CO[C@@H]1CN(C(=O)[C@H](CC(C)C)NC(=O)c2ccc(N3CCN(C)CC3)cc2)[C@@H]2C(=O)CO[C@@H]21` [Example 3, N—((S)-1-((3aS,6R,6aS)-6-methoxy-3-oxodihydro-2H-furo[3,2-b]pyrrol-4(5H,6H,6aH)-yl)-4-methyl-1-oxopentan-2-yl)-4-(4-methylpiperazin-1-yl)benzamide], the “Human Plasma Stability % rem. @ 1 h” value in data set [1] is 87%. In addition, in “LogD determinations”, the “LogD pH 7.4” value was determined as 0.42. In addition, at cathepsin K (setting [2]), the Ki is 15.1 nM.

Regarding “4-(4-ethylpiperazin-1-yl)-N—((S)-1-((3aS,6S,6aS)-6-methoxy-3-oxodihydro-2H-furo[3,2-b]pyrrol-4(5H,6H,6aH)-yl)-4,4dimethyl-1-oxopentan-2-yl)benzamide [Example 6]”, the Ki on cathepsin K (setting [3]) was more than 20000 nM.

On to `COCCN1CCN(c2ccc(C(=O)N[C@@H](CC(C)C)C(=O)N3C[C@@H](N)[C@H]4OCC(=O)[C@H]43)cc2)CC1` [Example 24, N—((S)-1-((3aS,6R,6aR)-6-amino-3-oxodihydro-2H-furo[3,2-b]pyrrol-4(5H,6H,6aH)-yl)-4-methyl-1-oxopentan-2-yl)-4-(4-(2-methoxyethyl)piperazin-1-yl)benzamide], for which, in data set [1], the “Human Plasma Stability % rem. @ 1 h” value is 96%. In addition, in “LogD determinations”, the pH-dependent lipophilicity (logD) at 1 h is 0.01 to 0.76 and the “LogD pH 7.4” value was 0.01. Further, the Ki on cathepsin K (setting [2]) is 3.5 nM.

As to “N—((S)-1-((3aS,6R,6aS)-6-hydroxy-3-oxodihydro-2H-furo[3,2-b]pyrrol-4(5H,6H,6aH)-yl)-4-methyl-1-oxopentan-2-yl)-4-(4-(2-methoxyethyl)piperazin-1-yl)benzamide [Example 26]”, the Ki at cathepsin K (setting [3]) was more than 8000 nM.

`CCCN1CCN(c2ccc(C(=O)N[C@@H](CC(C)C)C(=O)N3C[C@H](OC)[C@H]4OCC(=O)[C@H]43)cc2)CC1` [Example 13, N—((S)-1-((3aS,6S,6aS)-6-methoxy-3-oxodihydro-2H-furo[3,2-b]pyrrol-4(5H,6H,6aH)-yl)-4-methyl-1-oxopentan-2-yl)-4-(4-propylpiperazin-1-yl)benzamide]: in data set [1], the “Human Plasma Stability % rem. @ 1 h” value is reported as 93%. Besides, the “LogD pH 7.4” value in “LogD determinations” is listed as 1.64. For the same molecule, the Ki on cathepsin K (setting [2]) was found to be 3.9 nM.

“N—((S)-1-((3aS,6S,6aR)-6-amino-3-oxodihydro-2H-furo[3,2-b]pyrrol-4(5H,6H,6aH)-yl)-4-methyl-1-oxopentan-2-yl)-4-(4-(2-methoxyethyl)piperazin-1-yl)benzamide [Example 23]”: the Ki on cathepsin K (setting [3]) is more than 3000 nM.

`CCN1CCN(c2ccc(C(=O)N[C@@H](CC(C)(C)C)C(=O)N3C[C@H](OC)[C@H]4OCC(=O)[C@H]43)cc2)CC1` [Example 6, 4-(4-ethylpiperazin-1-yl)-N—((S)-1-((3aS,6S,6aS)-6-methoxy-3-oxodihydro-2H-furo[3,2-b]pyrrol-4(5H,6H,6aH)-yl)-4,4dimethyl-1-oxopentan-2-yl)benzamide]: the “Human Plasma Stability % rem. @ 1 h” value in data set [1] was 100%. In “LogD determinations”, the logD at 1 h was more than 0.8 and the “LogD pH 7.4” value is 1.46. For the same molecule, at cathepsin K (setting [2]), the Ki was 5.1 nM.

For “N—((S)-1-((3aS,6R,6aR)-6-amino-3-oxodihydro-2H-furo[3,2-b]pyrrol-4(5H,6H,6aH)-yl)-4-methyl-1-oxopentan-2-yl)-4-(4-(2-methoxyethyl)piperazin-1-yl)benzamide [Example 24]”, the Ki on cathepsin K (setting [3]) is more than 2000 nM.

As for `CCN1CCN(c2ccc(C(=O)N[C@H](C(=O)N3C[C@H](OC)[C@H]4OCC(=O)[C@H]43)C3CCCC3)cc2)CC1`, the “Human Plasma Stability % rem. @ 1 h” value in data set [1] turned out to be 90.9%. The molecule further yielded a logD at 1 h in “LogD determinations” of 1.59. Further, the Ki at cathepsin K (setting [2]) was 3.6 nM.

“N—((S)-1-((3aS,6R,6aS)-6-methoxy-3-oxodihydro-2H-furo[3,2-b]pyrrol-4(5H,6H,6aH)-yl)-4-methyl-1-oxopentan-2-yl)-4-(4-(2-methoxyethyl)piperazin-1-yl)benzamide [Example 28]”: at cathepsin K (setting [3]), the inhibition constant (Ki) is more than 2500 nM.

For the molecule “N—((S)-1-((3aS,6S,6aS)-6-methoxy-3-oxodihydro-2H-furo[3,2-b]pyrrol-4(5H,6H,6aH)-yl)-4,4-dimethyl-1-oxopentan-2-yl)-4-(4-methylpiperazin-1-yl)benzamide [Example 2]”, the Ki at cathepsin K (setting [3]) was more than 50000 nM.

For `CCCN1CCN(c2ccc(C(=O)N[C@@H](CC(C)(C)C)C(=O)N3C[C@H](OC)[C@H]4OCC(=O)[C@H]43)cc2)CC1` [Example 14, N—((S)-1-((3aS,6S,6aS)-6-methoxy-3-oxodihydro-2H-furo[3,2-b]pyrrol-4(5H,6H,6aH)-yl)-4,4-dimethyl-1-oxopentan-2-yl)-4-(4-propylpiperazin-1-yl)benzamide], the “Human Plasma Stability % rem. @ 1 h” value in data set [1] was determined as 98%. For the same molecule, the “LogD pH 7.4” value in “LogD determinations” was 1.74. Also, the Ki at cathepsin K (setting [2]) was determined as 8.6 nM.

In the case of “N—((S)-1-((3aS,6R,6aS)-6-methoxy-3-oxodihydro-2H-furo[3,2-b]pyrrol-4(5H,6H,6aH)-yl)-4,4-dimethyl-1-oxopentan-2-yl)-4-(4-methylpiperazin-1-yl)benzamide [Example 4]”, the Ki at cathepsin K (setting [3]) is more than 100000 nM.

Turning to “N—((S)-1-((3aS,6R,6aS)-6-methoxy-3-oxodihydro-2H-furo[3,2-b]pyrrol-4(5H,6H,6aH)-yl)-4-methyl-1-oxopentan-2-yl)-4-(4-methylpiperazin-1-yl)benzamide [Example 3]”, the Ki at cathepsin K (setting [3]) was more than 4000 nM.

As for “N—((S)-1-((3aS,6R,6aS)-6-methoxy-3-oxodihydro-2H-furo[3,2-b]pyrrol-4(5H,6H,6aH)-yl)-4,4-dimethyl-1-oxopentan-2-yl)-4-(1-propylpiperidin-4-yl)benzamide [Example 38]”, the Ki at cathepsin K (setting [3]) was more than 4000 nM.

Consider “N—((S)-1-((3aS,6S,6aS)-6-methoxy-3-oxodihydro-2H-furo[3,2-b]pyrrol-4(5H,6H,6aH)-yl)-4-methyl-1-oxopentan-2-yl)-4-(4-methylpiperazin-1-yl)benzamide [Example 1]”, for which, on cathepsin K (setting [3]), the Ki was more than 20000 nM.

As for “4-(4-ethylpiperazin-1-yl)-N—((S)-1-((3aS,6S,6aS)-6-methoxy-3-oxodihydro-2H-furo[3,2-b]pyrrol-4(5H,6H,6aH)-yl)-4-methyl-1-oxopentan-2-yl)benzamide [Example 5]”, at cathepsin K (setting [3]), the Ki is more than 100000 nM.

Regarding “4-(4-ethylpiperazin-1-yl)-N—((S)-1-((3aS,6R,6aS)-6-methoxy-3-oxodihydro-2H-furo[3,2-b]pyrrol-4(5H,6H,6aH)-yl)-4-methyl-1-oxopentan-2-yl)benzamide [Example 7]”, the Ki at cathepsin K (setting [3]) is more than 15000 nM.

Take “N—((S)-1-((3aS,6S,6aS)-6-methoxy-3-oxodihydro-2H-furo[3,2-b]pyrrol-4(5H,6H,6aH)-yl)-4-methyl-1-oxopentan-2-yl)-4-(4-(2-methoxyethyl)piperazin-1-yl)benzamide [Example 27]”: the Ki at cathepsin K (setting [3]) is more than 20000 nM.
